Experiments:
[1] = test system: human LDL receptor gene promoter coupled to firefly luciferase reporter gene in Hep-G2 cell line; assay: In vitro determination of LDL receptor induction using the luciferase assay; type: cell-based; settings: luminescence, DMSO control=100%
Experimental: 1) In Vitro Determination of LDL Receptor Induction Using the Luciferase Assay
LDL-receptor induction is determined using the luciferase assay as follows. A regulatory DNA fragment (4 kb) of the human LDL receptor gene containing the complete promoter region is coupled to the firefly luciferase reporter gene and stably transfixed into a Hep-G2 cell line. Cells from this line were seeded out on collagen-coated 96-well plates in MEM (minimum essential medium). After 24 hours in culture, the test substances, dissolved in DMSO, were added in final concentrations of 10 nM to 10 μM (final DMSO concentration=2%). The substances were incubated for 12-18 hours overnight (4 wells/conc. in each case), then D-luciferin was added as substrate for the luciferase, and the luminescence was measured. The measured luminescence as a percentage of the control (control=100%) incubated only with DMSO indicates the extent of the relative LDL receptor induction (Table 2).
Further details of the method are described in Current Protocols in Molecular Biology, F. M. Ausubel, R. Brent, R. E. Kingston, D. D. Moore, J. G. Seidman, J. A. Smith, and K. Struhl, eds., J. Wiley and Sons Inc., U.S.A.

[2] = test system: hyperlipemic hamsters (plasma lipid level); assay: In vivo reduction in LDL cholesterol / plasma lipid level in hyperlipemic hamsters; parameters: species or system Syrian hamster; settings: vs placebo-treated control
Text: In Vivo Determination of Reduction in LDL Cholesterol in the Hamster; Cholesterol-lowering Effect of LDL Receptor Inducers in Hyperlipemic Hamsters
In this animal experiment, the effect of LDL receptor inducers after bolus adiminstration to hamsters on a lipid-rich diet was investigated.
The experimental animals used were male Syrian hamsters (Charles River) with an average body weight of 100 to 120 g at the start of adaption. The animals were divided into groups (n=6) on the basis of the body weight. Severe hyperlipidemia was induced by feeding with a diet supplemented with 15% butter and 3% cholesterol. The treatment started after preliminary feeding for 2 weeks. The test substances were administered orally by gavage once a day over a period of 10 days. The plasma lipid level was analyzed after 10 days.

[3] = 20 mg/kg p.o. once a day for ten days
[4] = 40 mg/kg p.o. once a day for ten days

Row | SMILES | LDL receptor induction (% of control) ([1]; 0.15 μM) [%] | LDL receptor induction (% of control) ([1]; 4 μM) | LDL receptor induction (% of control) ([1]; 1.5 μM) | also measured
1 | CN1CCN(c2cc(NCc3ccccn3)c(S(=O)(=O)N(C)c3ccccc3)cc2S(=O)(=O)N(C)c2ccccc2)CC1 [Example 10] | 144 | 270% | – | –
2 | CN1CCN(c2cc(N3CCN(C)CC3)c(S(=O)(=O)N3CCCCC3)cc2S(=O)(=O)N2CCCCC2)CC1 [Example 8] | – | 190% (4 μM) | – | –
3 | CN(c1ccccc1)S(=O)(=O)c1cc(S(=O)(=O)N(C)c2ccccc2)c(N2CCNCC2)cc1NCc1ccccn1 [Example 46] | 152 | – | 223% | –
4 | CN1CCN(c2cc(N3CC=C(c4ccccc4)CC3)c(S(=O)(=O)N(C)c3ccccc3)cc2S(=O)(=O)N(C)c2ccccc2)CC1 [Example 108] | – | 249% | 191% | –
5 | COCCCNS(=O)(=O)c1cc(S(=O)(=O)NCCCOC)c(N2CCN(c3ccccc3)CC2)cc1NCCN1CCCC1 [Example 102] | – | 298% | 239% | –
6 | CCN(CCN(C)C)c1cc(N2CCN(c3ccccc3)CC2)c(S(=O)(=O)NCCc2cccs2)cc1S(=O)(=O)NCCc1cccs1 [Example 94] | – | 321% | 194% | –
7 | CCN(CCN(C)C)c1cc(N2CCN(c3ccccc3)CC2)c(S(=O)(=O)NCCCOC)cc1S(=O)(=O)NCCCOC [Example 96] | 138 | 326% | 278% | –
8 | CN(C)CCNc1cc(NCc2ccc(Cl)c(Cl)c2)c(S(=O)(=O)N2CCCCC2)cc1S(=O)(=O)N1CCCCC1 [Example 98] | – | 285% | 249% | Relative change in the plasma lipid level: LDL cholesterol [2, 3]: −26%; Relative change in the plasma lipid level: Total cholesterol [2, 3]: −23%; Relative change in the plasma lipid level: Triglycerides [2, 3]: −27%; Relative change in the plasma lipid level: LDL cholesterol [2, 4]: −44%; Relative change in the plasma lipid level: Total cholesterol [2, 4]: −46%; Relative change in the plasma lipid level: Triglycerides [2, 4]: −68%
9 | CN1CCN(c2cc(NCCCc3ccccc3)c(S(=O)(=O)N3CCOCC3)cc2S(=O)(=O)N2CCOCC2)CC1 [Example 15] | 137 | – | 243% | –
10 | O=S(=O)(NCCc1cccs1)c1cc(S(=O)(=O)NCCc2cccs2)c(NCc2cccc3ccccc23)cc1NCCN1CCCC1 [Example 95] | 198 | 301% | 267% | Relative change in the plasma lipid level: LDL cholesterol [2, 3]: −44%; Relative change in the plasma lipid level: Total cholesterol [2, 3]: −45%; Relative change in the plasma lipid level: Triglycerides [2, 3]: −61%; Relative change in the plasma lipid level: LDL cholesterol [2, 4]: −49%; Relative change in the plasma lipid level: Total cholesterol [2, 4]: −50%; Relative change in the plasma lipid level: Triglycerides [2, 4]: −73%
11 | CN(C)CCNc1cc(NCc2cccc(Cl)c2)c(S(=O)(=O)N2CCCCC2)cc1S(=O)(=O)N1CCCCC1 [Example 99] | – | 322% | 247% | –
12 | CN1CCN(c2cc(N3CCN(C)CC3)c(S(=O)(=O)N(C)Cc3ccccc3)cc2S(=O)(=O)N(C)Cc2ccccc2)CC1 [Example 3] | 184 | – | 414% | –
13 | CCN(CCN(C)C)c1cc(NCCCCc2ccccc2)c(S(=O)(=O)N2CCCCC2)cc1S(=O)(=O)N1CCCCC1 [Example 70] | 194 | 238% | – | –
14 | CCN(CC)S(=O)(=O)c1cc(S(=O)(=O)N(CC)CC)c(N2CCN(C)CC2)cc1NCc1ccccc1 [Example 16] | – | – | 214% (1.5 μM) | –
15 | CCN(CCN(C)C)c1cc(NC2CCN(Cc3ccccc3)CC2)c(S(=O)(=O)N2CCCCC2)cc1S(=O)(=O)N1CCCCC1 [Example 65] | 177 | 314% | 292% | –
16 | CN1CCN(c2cc(NCc3ccccc3)c(S(=O)(=O)N(C)c3ccccc3)cc2S(=O)(=O)N(C)c2ccccc2)CC1 [Example 9] | 244 | – | 402% | –
17 | CN1CCN(c2cc(NCc3ccccc3)c(S(=O)(=O)N3CCCC3)cc2S(=O)(=O)N2CCCC2)CC1 [Example 5] | – | 240% (4 μM) | – | –
18 | CN1CCN(c2cc(NCCCc3ccccc3)c(S(=O)(=O)N(C)c3ccccc3)cc2S(=O)(=O)N(C)c2ccccc2)CC1 [Example 25] | 168 | – | 189% | –
19 | CC(C)CNS(=O)(=O)c1cc(S(=O)(=O)NCC(C)C)c(N2CCN(C)CC2)cc1NCc1ccccc1 [Example 12] | – | – | 244% (1.5 μM) | –
20 | CN1CCN(c2cc(NCCCc3ccccc3)c(S(=O)(=O)N3CCCC3)cc2S(=O)(=O)N2CCCC2)CC1 [Example 26] | 146 | – | 206% | –
21 | CCN(CCN(C)C)S(=O)(=O)c1cc(S(=O)(=O)N(CC)CCN(C)C)c(N2CCN(C)CC2)cc1N(C)Cc1ccccc1 [Example 61] | – | 190% (4 μM) | – | –
22 | CCN(CCN(C)C)c1cc(NCCc2ccc(OC)c(OC)c2)c(S(=O)(=O)NCCc2cccs2)cc1S(=O)(=O)NCCc1cccs1 [Example 92] | – | 233% | 213% | –
23 | CCN(CCN(C)C)c1cc(N2CCN(c3ccccc3)CC2)c(S(=O)(=O)N2CCCCC2)cc1S(=O)(=O)N1CCCCC1 [Example 64, N-Ethyl-N′,N′-dimethyl-N-[5-(4-phenyl-piperazin-1-yl)-2,4-bis-(piperidine-1-sulfonyl)-phenyl]ethane-1,2-diamine] | – | – | – | melting point: 116 to 118 °C
24 | O=S(=O)(c1cc(S(=O)(=O)N2CCCCC2)c(NCc2cccc(Cl)c2)cc1NCCN1CCCC1)N1CCCCC1 [Example 84] | – | 223% | 199% | –
25 | CCN(CCN(C)C)c1cc(N2CCC(c3ccccc3)CC2)c(S(=O)(=O)NCCc2cccs2)cc1S(=O)(=O)NCCc1cccs1 [Example 93] | 213 | 337% | 293% | –
26 | CN1CCN(c2cc(NCc3ccccc3)c(S(=O)(=O)NC3CCCCC3)cc2S(=O)(=O)NC2CCCCC2)CC1 [Example 2] | – | 227% | 155% | –

— patent US6632838B1, “Use of bissulfonamides for producing medicines for the treatment of hyperlipidemia” (Aventis Pharma Deutschland GmbH, priority 1999, dated 2003)
